Changes are numbered by the printed parent chain. Names and notes keep the numbering of the source. Values joined by “and” are separate entries in the source; they are usually repeats but may differ in a detail not shown here. Identical values can stand only once. Like-named read-outs stand apart in the source and are kept apart here. Ends that are not written are not given here. * marks the point of attachment. Myristoyl = CCCCCCCCCCCCCC(=O)*
How the values were obtained:
NTCP = settings: most of these compounds, cited from earlier work
From the text: The hepatitis B virus (HBV) belongs to the family of Hepadnaviridae. Its DNA genome encodes 3 surface proteins (HBs), namely small HBs, middle HBs, and large HBs.[1] The hepatitis D virus (HDV) is a small negative-sense RNA satellite virus and depends on the HBV envelope for entry into hepatocytes, assembly, and secretion of newly formed virions.[2] […] HBV/HDV attachment to NTCP occurs via the myristoylated preS1 domain (myr-pre ...

NTCP variants = settings: cited from earlier work
From the text: This is exemplified by the genetic c.800G>A variant (rs2296651) that is frequent in East Asian populations and that leads to S267F mutation of NTCP inside the tunnel structure. […] More detailed analysis ... || Interaction site A is formed between F13 and F14 of myr-preS1 and the amino acids Q264, F283, F284, and L287 (TM8b, EL4, and TM9) as well as F18 (TM1) of NTCP; interaction sites B between F23 of myr-preS1 and V29 and V32 of NTCP; and interaction site C between K38, D39, H40, and W41 of myr-preS1 and A273, F274, and P275 (TM8b, EL4, and TM9) as well as Y146 (of EL2) of NTCP. For some of these amino acids, mutation studies confirmed their role for the myr-preS1 interaction. […] However, this domain also covers the surface of NTCP and not the tunnel structure. Within the published structures N87 forms hydrogen binds with E43 and K46 of the myr-preS1 string structure, while for the NTCP amino acid residues 84 to 86 no interactions with the myr-preS1 peptide could be detected. As mouse Ntcp with the corresponding residues 84HLTS87 has S ...

[1] = tested on: NTCPwt and NTCP-Y146A/F274A; assay: myr-preS1-AX568 peptide binding assay, NTCPwt-HEK293 vs NTCP-Y146A/F274A-HEK293 cells; parameters: species or system human; settings: 5 to 160 nM, 37 °C, fluorescence, quadruplicate determinations, two-way ANOVA P < .01
Experimental: T-Rex Flp-In human embryonic kidney (HEK293) cells (Thermo Fisher Scientific; RRID CVCL_0045) were grown in 1:1 Dulbecco’s modified Eagle medium (DMEM)/Ham’s F12 (Gibco). Both media were supplemented with 10% fetal calf serum (Gibco), L-glutamine 4 mM (Gibco), penicillin 100 U/mL (Carl Roth), and streptomycin 100 μg/mL (Carl Roth). Stably transfected T-Rex Flp-In HEK293 cells were selected with 100 μg/mL hygromycin (Carl Roth). Expression of the recombinant NTCP proteins was induced with 5 μg/mL tetracycline treatment for 72 hours. All cell lines were cultivated in 5% CO2 atmosphere at 37 °C. Cell lines were routinely checked for possible mycoplasma contamination. […]
To study the HBV receptor function of NTCP, NTCPwt-HEK293 and NTCP-Y146A/F274A-HEK293 cells were incubated with the C-terminally Alexa 568 fluorophore-coupled myr-preS1 peptide (further referred to as myr-preS1-AX568), which consists of amino acids 2 to 48 of the large HBV genotype D3 surface protein (Biosynthesis). […] Myr-preS1-AX568 peptide binding was analyzed using Leica DMI6000 B inverted fluorescent microscope and LAS X software, or fluorescence was quantified with Spark multimode microplate reader (Spark Multimode Microplate, Tecan) (excitation: 570 nm, emission: 615 nm). […] Cell-associated radioactivity was quantified by liquid scintillation counting in a Packard Microplate Scintillation Counter TopCount NXT.

[2] = target: T1, human Na+/taurocholate co-transporting polypeptide, wild type, FLAG-tagged, on NTCPwt-HEK293 cells (human, UniProt Q14973 1-349); assay: cell-based or functional assay
T1 sequence (looked up): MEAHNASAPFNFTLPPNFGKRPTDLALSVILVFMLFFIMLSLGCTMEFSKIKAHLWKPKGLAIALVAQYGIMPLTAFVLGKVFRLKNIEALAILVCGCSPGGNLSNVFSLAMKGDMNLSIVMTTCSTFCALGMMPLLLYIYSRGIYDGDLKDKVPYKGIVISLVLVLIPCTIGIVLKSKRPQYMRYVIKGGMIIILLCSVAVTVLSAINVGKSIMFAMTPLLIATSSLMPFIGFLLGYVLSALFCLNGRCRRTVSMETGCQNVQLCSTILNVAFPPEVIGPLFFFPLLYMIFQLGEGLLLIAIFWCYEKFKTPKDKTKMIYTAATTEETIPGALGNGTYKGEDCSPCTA

[3] = target: T1, human Na+/taurocholate co-transporting …; assay: radioligand binding; competition: 5 nM [3H]preS1 on tetracycline-induced NTCP-HEK293 cells in 96-well plates, 10 minutes at 37 °C in DMEM, after preincubation with increasing concentrations of unlabelled peptide; cells without tetracycline as 0% control; liquid scintillation counting; 2 independent experiments; settings: one partner purified

**Q.** For CC[C@H]1[C@@H](O)[C@@H]2[C@H](CC[C@]3(C)[C@@H]([C@H](C)CCC(=O)O)CC[C@@H]23)[C@@]2(C)CC[C@@H](O)C[C@@H]12 [obeticholic acid], which “NTCP inhibition, selectivity virus binding vs bile acid transport” value (NTCP; bile acid derivatives) is on record?
**A.** Its value is “block NTCP in a nonselective manner”.

**Q.** For O=C1[C@H](CC[C@H](O)c2ccc(F)cc2)[C@@H](c2ccc(O)cc2)N1c1ccc(F)cc1 [ezetimibe], which “NTCP inhibition, selectivity virus binding vs bile acid transport” value (NTCP; approved drugs) is on record?
**A.** Its value is “block NTCP in a nonselective manner”.

**Q.** For “myr-preS1: myristoylated preS1 domain of the HBV large surface protein (Myristoyl-GQNLSTSNPLGFFPDHQLDPAFRANTANPDWDFNPNKDTWPDANKVG)”, which myr-preS1 binding (NTCP variants; 84 to 87 humanized construct of mouse Ntcp) is on record?
**A.** The myr-preS1 binding was “did not only bind myr-preS1 but also supported infection”.

**Q.** And the myr-preS1 binding (NTCP variants; 158R NTCP variant found in OWM)?
**A.** Its myr-preS1 binding is “resistant to myr-preS1 binding”.

**Q.** And the myr-preS1 binding (NTCP variants; NTCP Q264A mutant, bile acid transport retained)?
**A.** The myr-preS1 binding was “significantly reduced myr-preS1 binding”.

**Q.** And the myr-preS1 binding (NTCP variants; NTCP V272W mutant, intact bile acids transport)?
**A.** Its myr-preS1 binding is “significantly reduced myr-preS1 binding”.

**Q.** What about the myr-preS1 binding (NTCP variants; R158G mutation of OWM Ntcp) of the same molecule?
**A.** The myr-preS1 binding was “sufficient to support myr-preS1 binding”.

**Q.** For CC(C)c1nc(CN(C)C(=O)N[C@H](C(=O)N[C@@H](Cc2ccccc2)C[C@H](O)[C@H](Cc2ccccc2)NC(=O)OCc2cncs2)C(C)C)cs1 [ritonavir], which “NTCP inhibition, selectivity virus binding vs bile acid transport” value (NTCP; approved drugs) is on record?
**A.** The value was “block NTCP in a nonselective manner”.

**Q.** Which “NTCP inhibition, selectivity virus binding vs bile acid transport” value (NTCP; plant-derived compounds) does the source give for C=C(C)[C@@H]1CC[C@]2(C(=O)O)CC[C@]3(C)[C@H](CC[C@@H]4[C@@]5(C)CC[C@H](O)C(C)(C)[C@@H]5CC[C@]43C)[C@@H]12 [betulinic acid] here?
**A.** The value was “block NTCP in a nonselective manner”.

**Q.** For CCCCCCCCCc1cc(OC(=O)c2c(CCCCCCCCC)cc(O)cc2OC2OC(CO)C(O)C(O)C2O)cc(O)c1C(=O)O (stereo not drawn) [exophillic acid], which “NTCP inhibition, selectivity virus binding vs bile acid transport” value (NTCP; plant-derived compounds) is on record?
**A.** Its value is “block NTCP in a nonselective manner”.

**Q.** Which “NTCP inhibition, selectivity virus binding vs bile acid transport” value (NTCP; approved drugs) does the source give for CCCCC1=NC2(CCCC2)C(=O)N1Cc1ccc(-c2ccccc2-c2nnn[nH]2)cc1 [irbesartan] here?
**A.** Its value is “block NTCP in a nonselective manner”.

**Q.** Which “NTCP inhibition, selectivity virus binding vs bile acid transport” value (NTCP; plant-derived compounds) does the source give for CCC(C)CC(C)C(=O)OC1(C)C(=O)c2c(cc(O)c3c2CC(O)CC3C)C(C)(O)C1=O (stereo not drawn) [vanitaracin A] here?
**A.** The value was “block NTCP in a nonselective manner”.

**Q.** Which “binding to the Y146A/F274A NTCP mutant compared with NTCPwt” value [1] does the source give for “myr-preS1-AX568: C-terminally Alexa 568 fluorophore-coupled myr-preS1 peptide, amino acids 2 to 48 of the large HBV genotype D3 surface protein (Myristoyl-GQNLSTSNPLGFFPDHQLDPAFRANTANPDWDFNPNKDTWPDANKVG-{Alexa 568}; also: myristoylated (myr-preS1))” here?
**A.** The value was “much lower binding to the NTCP-Y146A/F274A mutant compared with NTCPwt”.

**Q.** With CN(CCOc1ccc(CC2SC(=O)NC2=O)cc1)c1ccccn1 (stereo not drawn) [rosiglitazone] as the molecule, how does the “NTCP inhibition, selectivity virus binding vs bile acid transport” value (NTCP; approved drugs) read?
**A.** Its value is “block NTCP in a nonselective manner”.

B1: wild-type myr-preS1 peptide of HBV genotype D (unlabelled) (peptide)
peptide: GQNLSTSNPLGFFPDHQLDPAFRANTANPDWDFNPNKDTWPDANKVG
modifications: not fully specified (N-terminus); also: myristoylated (myr-preS1)
notes: also called myr-preS1 WT; wild-type myr-preS1 peptide (genotype D)
**Q.** Which “inhibition of [3H]TCA (1 μM) transport via NTCP in NTCP-HEK293 cells, 10 minutes at 37 °C, IC50” value [2] does the source give for B1 here?
**A.** The value was 111 nM and 221 nM.

**Q.** And the IC50 [3]?
**A.** The IC50 was 99 nM and 168 nM.

B2: W41G mutant myr-preS1 peptide of HBV genotype D (peptide)
peptide: B1 peptide with W40G
modifications: not fully specified (N-terminus); also: myristoylated (myr-preS1)
notes: also called myr-preS1-W41G; myr-preS1 W41G peptide; source: bought: ProteoGenix S.A.S
**Q.** For B2, which “inhibition of [3H]TCA (1 μM) transport via NTCP in NTCP-HEK293 cells, 10 minutes at 37 °C, IC50” value [2] is on record?
**A.** Its value is 386 nM and 397 nM.

**Q.** And the IC50 [3]?
**A.** Its IC50 is 422 nM and 298 nM.

Source: paper PMC12597529, “Interaction between W41 of the hepatitis B virus preS1 surface peptide and Y146/F274 of the cellular receptor molecule Na^+/taurocholate co-transporting polypeptide is essential for virus entry” (Molecular Pharmacology, 2025)
